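Five compound concentrations were applied to cells in 96-well plates for 48 hours; endpoints were derived by simple linear interpolation of the resulting dose-response curve. The concentration for 50% growth inhibition is given as GI50.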 Active and inactive are the calls of the source. Cut-off read from the data, not from the text of the source: active = GI50 up to about 1.1 µM and inactive = higher.
Tests used:
Test in all cases: NCI tumour cell line growth inhibition, 48 h
[1] = test system: 786-0
[2] = test system: A549
[3] = test system: ACHN
[4] = test system: CAKI-1
[5] = test system: CCRF-CEM
[6] = test system: COLO 205
[7] = test system: DLD-1
[8] = test system: DMS-273
[9] = test system: EKVX
[10] = test system: HCC 2998
[11] = test system: HCT-116
[12] = test system: HCT-15
[13] = test system: HOP-62
[14] = test system: HT-29
[15] = test system: K562
[16] = test system: KM-20L2
[17] = test system: KM12
[18] = test system: LOX IMVI
[19] = test system: LXFL 529
[20] = test system: M14
[21] = test system: M19-MEL
[22] = test system: MOLT-4
[23] = test system: Malme-3M
[24] = test system: NCI-H226
[25] = test system: NCI-H23
[26] = test system: NCI-H460
[27] = test system: NCI-H522
[28] = test system: OVCAR-3
[29] = test system: OVCAR-4
[30] = test system: OVCAR-5
[31] = test system: OVCAR-8
[32] = test system: RPMI-8226
[33] = test system: RXF 631
[34] = test system: SF-268
[35] = test system: SF-295
[36] = test system: SF-539
[37] = test system: SK-MEL-28
[38] = test system: SK-MEL-2
[39] = test system: SK-MEL-5
[40] = test system: SK-OV-3
[41] = test system: SN12C
[42] = test system: SNB-19
[43] = test system: SNB-75
[44] = test system: SNB-78
[45] = test system: SR
[46] = test system: SW-620
[47] = test system: U-251
[48] = test system: UACC-257
[49] = test system: UACC-62
[50] = test system: UO-31
[51] = test system: XF498
[52] = test system: A498
[53] = test system: DMS-114
[54] = test system: HL-60
[55] = test system: HOP-18
[56] = test system: IGROV-1
[57] = test system: RXF 393
[58] = test system: TK-10

Measured: GI50

O=[N+]([O-])c1cccc(Nc2nc(Cl)nc(Cl)n2)c1
> 100 µM: [12]
inactive: [1] > 100 µM | [2] > 100 µM | [3] > 100 µM | [4] > 100 µM | [5] > 100 µM | [6] > 100 µM | [7] > 100 µM | [8] > 100 µM | [9] > 100 µM | [10] > 100 µM | [11] > 100 µM | [13] > 100 µM | [14] > 100 µM | [15] > 100 µM | [16] > 100 µM | [17] > 100 µM | [18] > 100 µM | [19] > 100 µM | [20] > 100 µM | [21] > 100 µM | [22] > 100 µM | [23] > 100 µM | [24] > 100 µM | [25] > 100 µM | [26] > 100 µM | [27] > 100 µM | [28] > 100 µM | [29] 34.4 µM | [30] > 100 µM | [31] > 100 µM | [32] > 100 µM | [33] > 100 µM | [34] > 100 µM | [35] > 100 µM | [36] > 100 µM | [37] > 100 µM | [38] > 100 µM | [39] > 100 µM | [40] > 100 µM | [41] > 100 µM | [42] > 100 µM | [43] > 100 µM | [44] > 100 µM | [45] > 100 µM | [46] > 100 µM | [47] > 100 µM | [48] > 100 µM | [49] > 100 µM | [50] > 100 µM | [51] > 100 µM

O=C1C[C@@H]2C(COC(=O)c3ccccc3)N(OCc3ccccc3)C[C@@H]2O1 (stereo not given in full)
inactive: [1] > 100 µM | [52] > 100 µM | [2] > 100 µM | [3] > 100 µM | [5] > 100 µM | [6] > 100 µM | [7] > 100 µM | [53] > 100 µM | [8] > 100 µM | [9] > 100 µM | [10] > 100 µM | [11] > 100 µM | [54] > 100 µM | [55] > 100 µM | [13] > 100 µM | [14] > 100 µM | [56] > 100 µM | [15] > 100 µM | [16] > 100 µM | [17] > 100 µM | [18] > 100 µM | [19] > 100 µM | [20] > 100 µM | [21] > 100 µM | [22] > 100 µM | [23] > 100 µM | [24] > 100 µM | [25] > 100 µM | [26] > 100 µM | [27] > 100 µM | [28] > 100 µM | [29] > 100 µM | [30] > 100 µM | [31] > 100 µM | [57] > 100 µM | [33] > 100 µM | [34] > 100 µM | [36] > 100 µM | [37] > 100 µM | [38] > 100 µM | [39] > 100 µM | [40] > 100 µM | [41] > 100 µM | [42] > 100 µM | [43] > 100 µM | [44] > 100 µM | [45] > 100 µM | [46] > 100 µM | [58] > 100 µM | [47] > 100 µM | [48] > 100 µM | [49] > 100 µM | [50] > 100 µM
> 100 µM: [12]
